Experimental data: patent US9487515B2, “Compounds modulating c-fms and/or c-kit activity and uses therefor” (Plexxikon Inc., priority 2006, dated 2016)

Each molecule was assayed against c-kit (Homo sapiens, UniProt P10721) (assay: c-kit assays of Examples 40 and 41 (AlphaScreen kinase assays at 10 and 100 μM ATP, 33P-ATP filter assay, M-07e SCF-stimulated proliferation and phosphorylation)).
Sequence of c-kit (P10721 with tags, fused parts or gaps): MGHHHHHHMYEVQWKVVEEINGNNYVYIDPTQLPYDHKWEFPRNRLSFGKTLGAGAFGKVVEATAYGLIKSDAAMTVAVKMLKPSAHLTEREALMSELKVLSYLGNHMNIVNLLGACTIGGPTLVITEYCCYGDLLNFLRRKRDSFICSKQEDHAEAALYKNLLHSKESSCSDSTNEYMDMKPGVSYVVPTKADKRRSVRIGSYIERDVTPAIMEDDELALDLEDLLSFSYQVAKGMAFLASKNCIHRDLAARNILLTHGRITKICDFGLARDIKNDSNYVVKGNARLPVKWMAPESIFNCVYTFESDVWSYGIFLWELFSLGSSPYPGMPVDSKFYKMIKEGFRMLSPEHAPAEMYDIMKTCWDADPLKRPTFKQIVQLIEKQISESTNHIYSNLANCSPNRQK

IC50, < 1000 nM:
FC(F)(F)c1cc(CNc2ccc(Cc3c[nH]c4ncccc34)cn2)ccc1Cl [P-0348, (4-Chloro-3-trifluoromethyl-benzyl)-[5-(1H-pyrrolo[2,3-b]pyridin-3-ylmethyl)-pyridin-2-yl]-amine]
Fc1ccc(C(F)(F)F)cc1CNc1ccc(Cc2c[nH]c3ncccc23)cn1 [P-0350, (2-Fluoro-5-trifluoromethyl-benzyl)-[5-(1H-pyrrolo[2,3-b]pyridin-3-ylmethyl)-pyridin-2-yl]-amine]
Clc1cccc(CNc2ccc(Cc3c[nH]c4ncccc34)cn2)c1Cl [P-0351, (2,3-Dichloro-benzyl)-[5-(1H-pyrrolo[2,3-b]pyridin-3-ylmethyl)-pyridin-2-yl]-amine]
COc1cccc(CNc2ccc(Cc3c[nH]c4ncccc34)cn2)c1F [P-0352, (2-Fluoro-3-methoxy-benzyl)-[5-(1H-pyrrolo[2,3-b]pyridin-3-ylmethyl)-pyridin-2-yl]-amine]
Fc1c(Cl)cccc1CNc1ccc(Cc2c[nH]c3ncccc23)cn1 [P-0354, (3-Chloro-2-fluoro-benzyl)-[5-(1H-pyrrolo[2,3-b]pyridin-3-ylmethyl)-pyridin-2-yl]-amine]
Fc1ccc(CNc2ccc(Cc3c[nH]c4ncccc34)cn2)nc1 [P-0355, (5-Fluoro-pyridin-2-ylmethyl)-[5-(1H-pyrrolo[2,3-b]pyridin-3-ylmethyl)-pyridin-2-yl]-amine]
Fc1cc(F)cc(CNc2ccc(Cc3c[nH]c4ncccc34)cn2)c1 [P-0356, (3,5-Difluoro-benzyl)-[5-(1H-pyrrolo[2,3-b]pyridin-3-ylmethyl)-pyridin-2-yl]-amine]
CCCOc1ccccc1CNc1ccc(Cc2c[nH]c3ncccc23)cn1 [P-0357, (2-Propoxy-benzyl)-[5-(1H-pyrrolo[2,3-b]pyridin-3-ylmethyl)-pyridin-2-yl]-amine]
c1ccc(N2CCOCC2)c(CNc2ccc(Cc3c[nH]c4ncccc34)cn2)c1 [P-0358, (2-Morpholin-4-yl-benzyl)-[5-(1H-pyrrolo[2,3-b]pyridin-3-ylmethyl)-pyridin-2-yl]-amine]
COc1cccc(CNc2ccc(Cc3c[nH]c4ncccc34)cn2)c1Cl [P-0359, (2-Chloro-3-methoxy-benzyl)-[5-(1H-pyrrolo[2,3-b]pyridin-3-ylmethyl)-pyridin-2-yl]-amine]
c1ccc(OCCN2CCOCC2)c(CNc2ccc(Cc3c[nH]c4ncccc34)cn2)c1 [P-0361, [2-(2-Morpholin-4-yl-ethoxy)-benzyl]-[5-(1H-pyrrolo[2,3-b]pyridin-3-ylmethyl)-pyridin-2-yl]-amine]
Fc1cccc(CNc2ccc(Cc3c[nH]c4ncccc34)cn2)c1F [P-0362, (2,3-Difluoro-benzyl)-[5-(1H-pyrrolo[2,3-b]pyridin-3-ylmethyl)-pyridin-2-yl]-amine]
FC(F)(F)c1cccc(CNc2ccc(Cc3c[nH]c4ncccc34)cn2)c1Cl [P-0363, (2-Chloro-3-trifluoromethyl-benzyl)-[5-(1H-pyrrolo[2,3-b]pyridin-3-ylmethyl)-pyridin-2-yl]-amine]
Fc1c(CNc2ccc(Cc3c[nH]c4ncccc34)cn2)cccc1C(F)(F)F [P-0365, (2-Fluoro-3-trifluoromethyl-benzyl)-[5-(1H-pyrrolo[2,3-b]pyridin-3-ylmethyl)-pyridin-2-yl]-amine]
COc1ccc(F)cc1CNc1ccc(Cc2c[nH]c3ncccc23)cn1 [P-0366, (5-Fluoro-2-methoxy-benzyl)-[5-(1H-pyrrolo[2,3-b]pyridin-3-ylmethyl)-pyridin-2-yl]-amine]
FC(F)Oc1ccccc1CNc1ccc(Cc2c[nH]c3ncccc23)cn1 [P-0367, (2-Difluoromethoxy-benzyl)-[5-(1H-pyrrolo[2,3-b]pyridin-3-ylmethyl)-pyridin-2-yl]-amine]
Cc1ccc(CNc2ccc(Cc3c[nH]c4ncccc34)cn2)c(F)c1 [P-0368, (2-Fluoro-4-methyl-benzyl)-[5-(1H-pyrrolo[2,3-b]pyridin-3-ylmethyl)-pyridin-2-yl]-amine]
CN(C)CCCOc1ccccc1CNc1ccc(Cc2c[nH]c3ncccc23)cn1 [P-0369, [2-(3-Dimethylamino-propoxy)-benzyl]-[5-(1H-pyrrolo[2,3-b]pyridin-3-ylmethyl)-pyridin-2-yl]-amine]
COc1ccc(CNc2ccc(Cc3c[nH]c4ncccc34)cn2)c(OC)n1 [P-0370, (2,6-Dimethoxy-pyridin-3-ylmethyl)-[5-(1H-pyrrolo[2,3-b]pyridin-3-ylmethyl)-pyridin-2-yl]-amine]
COc1ccc(F)c(CNc2ccc(Cc3c[nH]c4ncccc34)cn2)c1 [P-0371, (2-Fluoro-5-methoxy-benzyl)-[5-(1H-pyrrolo[2,3-b]pyridin-3-ylmethyl)-pyridin-2-yl]-amine]
Cc1cc(F)ccc1CNc1ccc(Cc2c[nH]c3ncccc23)cn1 [P-0372, (4-Fluoro-2-methyl-benzyl)-[5-(1H-pyrrolo[2,3-b]pyridin-3-ylmethyl)-pyridin-2-yl]-amine]
Fc1cc(Cl)cc(CNc2ccc(Cc3c[nH]c4ncccc34)cn2)c1 [P-0373, (3-Chloro-5-fluoro-benzyl)-[5-(1H-pyrrolo[2,3-b]pyridin-3-ylmethyl)-pyridin-2-yl]-amine]
Fc1ccc(C(F)(F)F)c(CNc2ccc(Cc3c[nH]c4ncccc34)cn2)c1 [P-0375, (5-Fluoro-2-trifluoromethyl-benzyl)-[5-(1H-pyrrolo[2,3-b]pyridin-3-ylmethyl)-pyridin-2-yl]-amine]
FC(F)(F)COc1ncccc1CNc1ccc(Cc2c[nH]c3ncccc23)cn1 [P-0376, [5-(1H-Pyrrolo[2,3-b]pyridin-3-ylmethyl)-pyridin-2-yl]-[2-(2,2,2-trifluoro-ethoxy)-pyridin-3-ylmethyl]-amine]
CCCS(=O)(=O)Nc1cccc(CNc2ccc(Cc3c[nH]c4ncccc34)cn2)c1F [P-0377, Propane-1-sulfonic acid (2-fluoro-3-{[5-(1H-pyrrolo[2,3-b]pyridin-3-ylmethyl)-pyridin-2-ylamino]-methyl}-phenyl)-amide]
COc1ccc(CNc2ccc(Cc3c[nH]c4ncccc34)c(F)n2)cn1 [P-0378, [6-Fluoro-5-(1H-pyrrolo[2,3-b]pyridin-3-ylmethyl)-pyridin-2-yl]-(6-methoxy-pyridin-3-ylmethyl)-amine]
COc1ccc(CNc2ccc(Cc3c[nH]c4ncc(Cl)cc34)c(F)n2)cn1 [P-0379, [5-(5-Chloro-1H-pyrrolo[2,3-b]pyridin-3-ylmethyl)-6-fluoro-pyridin-2-yl]-(6-methoxy-pyridin-3-ylmethyl)-amine]
Fc1ccc(Cl)cc1CNc1ccc(Cc2c[nH]c3ncccc23)cn1 [P-0382, (5-Chloro-2-fluoro-benzyl)-[5-(1H-pyrrolo[2,3-b]pyridin-3-ylmethyl)-pyridin-2-yl]-amine]
CCc1ccccc1CNc1ccc(Cc2c[nH]c3ncccc23)cn1 [P-0383, (2-Ethyl-benzyl)-[5-(1H-pyrrolo[2,3-b]pyridin-3-ylmethyl)-pyridin-2-yl]-amine]
CNc1ncccc1CNc1ccc(Cc2c[nH]c3ncccc23)cn1 [P-0385, Methyl-(3-{[5-(1H-pyrrolo[2,3-b]pyridin-3-ylmethyl)-pyridin-2-ylamino]-methyl}-pyridin-2-yl)-amine]
CS(=O)(=O)c1ccc(CNc2ccc(Cc3c[nH]c4ncccc34)cn2)c(Cl)c1 [P-0387, (2-Chloro-4-methanesulfonyl-benzyl)-[5-(1H-pyrrolo[2,3-b]pyridin-3-ylmethyl)-pyridin-2-yl]-amine]
FC(F)Oc1ccccc1CNc1ncc(Cc2c[nH]c3ncc(Cl)cc23)cn1 [P-0390, [5-(5-Chloro-1H-pyrrolo[2,3-b]pyridin-3-ylmethyl)-pyrimidin-2-yl]-(2-difluoromethoxy-benzyl)-amine]
Fc1c(Cl)cccc1CNc1ncc(Cc2c[nH]c3ncc(Cl)cc23)cn1 [P-0392, (3-Chloro-2-fluoro-benzyl)-[5-(5-chloro-1H-pyrrolo[2,3-b]pyridin-3-ylmethyl)-pyrimidin-2-yl]-amine]
Fc1c(CNc2ncc(Cc3c[nH]c4ncc(Cl)cc34)cn2)cccc1C(F)(F)F [P-0393, [5-(5-Chloro-1H-pyrrolo[2,3-b]pyridin-3-ylmethyl)-pyrimidin-2-yl]-(2-fluoro-3-trifluoromethyl-benzyl)-amine]
Fc1cc(C(F)(F)F)ccc1CNc1ncc(Cc2c[nH]c3ncc(Cl)cc23)cn1 [P-0394, [5-(5-Chloro-1H-pyrrolo[2,3-b]pyridin-3-ylmethyl)-pyrimidin-2-yl]-(2-fluoro-4-trifluoromethyl-benzyl)-amine]
Fc1cccc(CNc2ncc(Cc3c[nH]c4ncc(Cl)cc34)cn2)c1F [P-0395, [5-(5-Chloro-1H-pyrrolo[2,3-b]pyridin-3-ylmethyl)-pyrimidin-2-yl]-(2,3-difluoro-benzyl)-amine]
Fc1ccc(CNc2ncc(Cc3c[nH]c4ncc(Cl)cc34)cn2)c(Cl)c1 [P-0396, (2-Chloro-4-fluoro-benzyl)-[5-(5-chloro-1H-pyrrolo[2,3-b]pyridin-3-ylmethyl)-pyrimidin-2-yl]-amine]
FC(F)(F)Oc1ccccc1CNc1ncc(Cc2c[nH]c3ncc(Cl)cc23)cn1 [P-0402, [5-(5-Chloro-1H-pyrrolo[2,3-b]pyridin-3-ylmethyl)-pyrimidin-2-yl]-(2-trifluoromethoxy-benzyl)-amine]
